Experiments:
[1] = system: passive cutaneous anaphylaxis (PCA) reaction; test: Inhibiting effect on a 48 hour PCA reaction (test method for compound prepared in Example 22); type: in vivo, male Wistar strain rats; conditions: 100 mg/kg orally 30 minutes before the induction; dye leakage
Experimental: (§1) Eight-weeks old male Wistar strain rats were immunized by subcutaneously injecting 0.1 ml of 700-fold diluted DNP-Ascaris antiserum (titer=1:1024) at two positions on the dorsum. Forty-eight hours after the immunization, 1 ml of a 0.5% Evans blue solution containing 1 mg of DNP-Ascaris antigen was administered into a pedal vein to induce a PCA reaction. Thirty minutes after the induction, the rats were bled to death and blue circular parts appearing at the immunized positions were excised. The dye was extracted from the blue circular parts with ethyl acetate and the amount of the dye leakage was determined. A test substance was suspended in a 0.5% CMC-Na solution and administered orally to each rat at a dose of 100 mg/kg 30 minutes before the induction.
(§2) Using a reference group to which only a 0.5% CMC-Na solution was administered orally, a reference value for the amount of dye leakage was obtained. The percent inhibition was determined as 100% when the amount of dye leakage was zero and as 0% when the amount of dye leakage was equal to the reference value. On the basis of these criteria, the percent inhibition of each test substance was calculated at varying doses.

[2] = system: passive cutaneous anaphylaxis (PCA) reaction; test: Inhibiting effect on a 48 hour PCA reaction (test method for compound prepared in Example 1); type: in vivo, male Wistar strain rats; conditions: 100 mg/kg orally 1 hour before the induction; dye leakage
Experimental: as §1, with “0.05” for “0.1”, “50-fold” for “700-fold”, “(titer=1:64)” for “(titer=1:1024)”, “four” for “two”, “tail” for “pedal”, “1 hour” for “at a dose of 100 mg/kg 30 minutes”
as §2

## COc1ccc(/C=C/C(=O)Nc2ccccc2C(=O)O)cc1OC [Tranilast, tranilast, reference compound]
[1]
  Percent Inhibition: 35%
[2]
  Percent Inhibition: 66%

Source: US5661153A, “1-arylpyrimidine derivatives and pharmaceutical use thereof” (Japan Energy Corporation, priority 1994, dated 1997)
